The results in this text go back to patent US11192865B2, “Benzosulfonyl compounds” (Vivace Therapeutics, Inc., priority 2017, dated 2021).

The experiment relates to 8XTBD luciferase reporter. The experiment can be described thus: YAP Reporter Assay. It counts as cell-based. The settings on record: Homo sapiens, HEK-293T; HEK293T cells stably transfected with 8XTBD luciferase reporter and pRLTK; 24-hr incubation; starting from 3 μM, 1:3 dilution, 10 points; read-out: Firefly Luciferase IC50. The essentials:
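HEK293T cells stably carrying the 8XTBD firefly luciferase reporter and TK-renilla control received compounds at a 10-point, 1:3 series from 3 μM (final) in quadruplicate. After 24 h at 37° C, Dual-Glo luminescence was read. IC50 and maximal inhibition were reported separately for firefly and renilla signals.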
In general terms: A reporter such as luciferase makes a cellular process visible.
As to `CNS(=O)(=O)c1ccc(Nc2ccc(SC(F)(F)F)cc2)c(-c2cn(C)cn2)c1` [Compound 144, N-methyl-3-(1-methylimidazol-4-yl)-4-[4-(trifluoromethylsulfanyl)anilino] benzenesulfonamide], the IC50 is no more than 100 nM.
The same measure for `CNS(=O)(=O)c1ccc(NC2CCCCC2)c(-c2nnn(C3CCN(S(C)(=O)=O)CC3)n2)c1` [Compound 32, 4-(cyclohexylamino)-N-methyl-3-(2-(1-(methylsulfonyl)piperidin-4-yl)-2H-tetrazol-5-yl)benzenesulfonamide]: greater than 3000 nM; for `CNS(=O)(=O)c1ccc(Nc2ccccc2C(F)(F)F)c(-c2nnnn2C)c1` [Compound 98, N-methyl-3-(1-methyl-1H-tetrazol-5-yl)-4-((2-(trifluoromethyl)phenyl)amino)benzenesulfonamide]: greater than 3000 nM; for `CCCn1nnc(-c2cc(S(=O)(=O)NC)ccc2NC2CCCCC2)n1` [Compound 15, 4-(cyclohexylamino)-N-methyl-3-(2-propyl-2H-tetrazol-5-yl)benzenesulfonamide]: no more than 100 nM.
Next, `CNS(=O)(=O)c1ccc(NC2CCCCC2)c(-c2cccnc2)c1` [Compound 77, 4-(cyclohexylamino)-N-methyl-3-(pyridin-3-yl)benzenesulfonamide]: greater than 3000 nM; `CNS(=O)(=O)c1ccc(NC2CCCCC2)c(-c2nnn(C3CCN(c4cccnc4)CC3)n2)c1` [Compound 33, 4-(cyclohexylamino)-N-methyl-3-(2-(1-(pyridin-3-yl)piperidin-4-yl)-2H-tetrazol-5-yl)benzenesulfonamide]: 100 to 1000 nM; `CNS(=O)(=O)c1ccc(NC2CCCCC2)c(-c2noc(C)n2)c1` [Compound 48, 4-(cyclohexylamino)-N-methyl-3-(5-methyl-1,2,4-oxadiazol-3-yl)benzene sulfonamide]: no more than 100 nM.
As for `CNS(=O)(=O)c1ccc(NC2CCCCC2)c(-c2ccccn2)c1` [Compound 64, 4-(cyclohexylamino)-N-methyl-3-(pyridin-2-yl)benzenesulfonamide], the concentration for half-maximal inhibition (IC50) is no more than 100 nM.
The same measure for `CNS(=O)(=O)c1ccc(NC2CCCCC2)c(-c2nnn(C3CCN(c4ccccc4)C3)n2)c1` (stereo not shown) [Compound 37, 4-(cyclohexylamino)-N-methyl-3-(2-(1-phenylpyrrolidin-3-yl)-2H-tetrazol-5-yl)benzenesulfonamide]: greater than 3000 nM; for `CNS(=O)(=O)c1ccc(Nc2cc(C(F)(F)F)cc(C(F)(F)F)c2)c(-c2cn(C)cn2)c1` [Compound 146, 4-[3,5-Bis(trifluoromethyl)anilino]-N-methyl-3-(1-methylimidazol-4-yl)benzenesulfonamide]: 100 to 1000 nM; for `CNS(=O)(=O)c1ccc(Nc2cc(F)ccc2F)c(-c2nnnn2C)c1` [Compound 109, 4-((2,5-difluorophenyl)amino)-N-methyl-3-(1-methyl-1H-tetrazol-5-yl)benzenesulfonamide]: greater than 3000 nM.
Next, `CNS(=O)(=O)c1ccc(NC2CCCCC2)c(-c2nnnn2C2CCCN(C(=O)OC(C)(C)C)C2)c1` (stereo not shown) [Compound 60, tert-butyl 3-(5-(2-(cyclohexylamino)-5-(N-methylsulfamoyl)phenyl)-1H-tetrazol-1-yl)piperidine-1-carboxylate]: greater than 3000 nM; `CNS(=O)(=O)c1ccc(NC2CCCCC2)c(-c2nnn(C3CCCN(C(C)C)C3)n2)c1` (stereo not shown) [Compound 61, 4-(cyclohexylamino)-3-(2-(1-isopropylpiperidin-3-yl)-2H-tetrazol-5-yl)-N-methylbenzenesulfonamide]: greater than 3000 nM.
The same measure for `CNS(=O)(=O)c1ccc(NC2CCCCC2)c(-c2nnn(C3CCN(C(C)C)C3)n2)c1` (stereo not shown) [Compound 36, 4-(cyclohexylamino)-3-(2-(1-isopropylpyrrolidin-3-yl)-2H-tetrazol-5-yl)-N-methylbenzenesulfonamide]: 1000 to 3000 nM; for `CNS(=O)(=O)c1ccc(NC2CCCCC2)c(-c2ccncc2)c1` [Compound 65, 4-(cyclohexylamino)-N-methyl-3-(pyridin-4-yl)benzenesulfonamide]: greater than 3000 nM; for `CNS(=O)(=O)c1ccc(NC2CCCCC2)c(-c2cc(N)ccn2)c1` [Compound 84, 3-(4-aminopyridin-2-yl)-4-(cyclohexylamino)-N-methylbenzenesulfonamide]: 100 to 1000 nM.
Regarding `CNc1ccnc(-c2cc(S(=O)(=O)NC)ccc2NC2CCCCC2)c1` [Compound 88, 4-(cyclohexylamino)-N-methyl-3-(4-(methylamino)pyridin-2-yl)benzenesulfonamide], the IC50 was no more than 100 nM.
`CNS(=O)(=O)c1ccc(NC2CCCCC2)c(-c2nnn(C3CNC3)n2)c1` [Compound 54, 3-(2-(azetidin-3-yl)-2H-tetrazol-5-yl)-4-(cyclohexylamino)-N-methylbenzenesulfonamide]: the half-maximal inhibitory concentration (IC50) was greater than 3000 nM.
The same measure for `CNS(=O)(=O)c1ccc(NC2CCCCC2)c(-c2ncccn2)c1` [Compound 56, 4-(cyclohexylamino)-N-methyl-3-(pyrimidin-2-yl)benzenesulfonamide]: no more than 100 nM.
With `CNS(=O)(=O)c1ccc(NC2CCCCC2)c(-c2nnn(Cc3cccnc3)n2)c1` [Compound 29, 4-(cyclohexylamino)-N-methyl-3-(2-(pyridin-3-ylmethyl)-2H-tetrazol-5-yl)benzenesulfonamide], the IC50 was no more than 100 nM.
As for `CCn1cnc(-c2cc(S(=O)(=O)NC)ccc2NC2CCCCC2)c1` [Compound 112, 4-(cyclohexylamino)-3-(1-ethyl-1H-imidazol-4-yl)-N-methylbenzenesulfonamide], the IC50 is no more than 100 nM.
The same measure for `CNS(=O)(=O)c1ccc(NC2CCCCC2)c(-c2nnn(C3CCCC3)n2)c1` [Compound 18, 4-(cyclohexylamino)-3-(2-cyclopentyl-2H-tetrazol-5-yl)-N-methylbenzenesulfonamide]: 100 to 1000 nM; for `CC(C)(C)NS(=O)(=O)c1ccc(NC2CCCCC2)c(-c2nn[nH]n2)c1` [Compound 1, N-(tert-butyl)-4-(cyclohexylamino)-3-(2H-tetrazol-5-yl)benzenesulfonamide]: greater than 3000 nM.
As to `CNS(=O)(=O)c1ccc(Nc2cccc(SC(F)(F)F)c2)c(-c2cn(C)cn2)c1` [Compound 141, N-methyl-3-(1-methylimidazol-4-yl)-4-[3-(trifluoromethylsulfanyl)anilino] benzenesulfonamide], the IC50 is no more than 100 nM.
Next, `CCn1cncc1-c1cc(S(=O)(=O)NC)ccc1NC1CCCCC1` [Compound 114, 4-(cyclohexylamino)-3-(1-ethyl-1H-imidazol-5-yl)-N-methylbenzenesulfonamide]: greater than 3000 nM; `Cn1ccc(-c2cc(S(C)(=O)=O)ccc2NC2CCCCC2)n1` [Compound 8, N-cyclohexyl-2-(1-methyl-1H-pyrazol-3-yl)-4-(methylsulfonyl)aniline]: 100 to 1000 nM; `CNS(=O)(=O)c1ccc(Nc2ccccc2OC(F)(F)F)c(-c2nnnn2C)c1` [Compound 101, N-methyl-3-(1-methyl-1H-tetrazol-5-yl)-4-((2-(trifluoromethoxy)phenyl)amino)benzenesulfonamide]: greater than 3000 nM.
The same measure for `CNS(=O)(=O)c1ccc(Nc2ccc(-c3ccccc3)cc2)c(-c2nnn(C)n2)c1` [Compound 128, N-methyl-3-(2-methyltetrazol-5-yl)-4-(4-phenylanilino) benzenesulfonamide]: 1000 to 3000 nM; for `CNS(=O)(=O)c1ccc(NC2CCCCC2)c(-c2nnn(C3CN(c4cccnc4)C3)n2)c1` [Compound 70, 4-(cyclohexylamino)-N-methyl-3-(2-(1-(pyridin-3-yl)azetidin-3-yl)-2H-tetrazol-5-yl)benzenesulfonamide]: 100 to 1000 nM; for `CNS(=O)(=O)c1ccc(Nc2cc(F)cc(F)c2)c(-c2nnnn2C)c1` [Compound 107, 4-((3,5-difluorophenyl)amino)-N-methyl-3-(1-methyl-1H-tetrazol-5-yl)benzenesulfonamide]: greater than 3000 nM.
Next, `CNS(=O)(=O)c1ccc(NC2CCCCC2)c(-c2nnn(-c3ccccc3F)n2)c1` [Compound 23, 4-(cyclohexylamino)-3-(2-(2-fluorophenyl)-2H-tetrazol-5-yl)-N-methylbenzenesulfonamide]: 100 to 1000 nM; `CNS(=O)(=O)c1ccc(Nc2cccc(C(F)(F)F)c2)c(-c2nnn(Cc3ccccc3F)n2)c1` [Compound 136, 3-[2-[(2-Fluorophenyl)methyl]tetrazol-5-yl]-N-methyl-4-[3-(trifluoromethyl)anilino]benzene-sulfonamide]: no more than 100 nM; `CNS(=O)(=O)c1ccc(NC2CCCCC2)c(-c2nnn(C3CCCN(c4cccnc4)C3)n2)c1` (stereo not shown) [Compound 86, 4-(cyclohexylamino)-N-methyl-3-(2-(1-(pyridin-3-yl)piperidin-3-yl)-2H-tetrazol-5-yl)benzenesulfonamide]: 100 to 1000 nM.
As for `Cn1cc(-c2cc(S(C)(=O)=O)ccc2NC2CCCCC2)cn1` [Compound 7, N-cyclohexyl-2-(1-methyl-1H-pyrazol-4-yl)-4-(methylsulfonyl)aniline], the IC50 was greater than 3000 nM.
Next, `CNS(=O)(=O)c1ccc(NC2CCCCC2)c(-c2cccc(N)n2)c1` [Compound 76, 3-(6-aminopyridin-2-yl)-4-(cyclohexylamino)-N-methylbenzenesulfonamide]: 100 to 1000 nM.
Next, `CNS(=O)(=O)c1ccc(NC2CCCCC2)c(-c2nnn(-c3ccc(F)cc3)n2)c1` [Compound 16, 4-(cyclohexylamino)-3-(2-(4-fluorophenyl)-2H-tetrazol-5-yl)-N-methylbenzenesulfonamide]: 100 to 1000 nM; `CNS(=O)(=O)c1ccc(Nc2cc(Cl)c(Cl)c(Cl)c2)c(-c2cn(C)cn2)c1` [Compound 145, N-methyl-3-(1-methylimidazol-4-yl)-4-(3,4,5-trichloroanilino)benzenesulfonamide]: no more than 100 nM.

What is called IC50 is the concentration needed to halve the response being measured.
